Measurements from US5484786A, “Pyran-4-ylmethyl substituted arylalkylaryl-, arylalkenylylaryl-, and arylalkynylarylurea inhibitors of 5-lipoxygenase” (Abbott Laboratories, priority 1993, dated 1996).
One block for each compound: values may come before it.

Biological target: T1, 5-Lipoxygenase (Homo sapiens, UniProt P09917)
T1 construct: Human heparinized whole blood was preincubated with test compounds; from tissue; host or cells: human heparinized whole blood
T1 sequence (P09917 1-674): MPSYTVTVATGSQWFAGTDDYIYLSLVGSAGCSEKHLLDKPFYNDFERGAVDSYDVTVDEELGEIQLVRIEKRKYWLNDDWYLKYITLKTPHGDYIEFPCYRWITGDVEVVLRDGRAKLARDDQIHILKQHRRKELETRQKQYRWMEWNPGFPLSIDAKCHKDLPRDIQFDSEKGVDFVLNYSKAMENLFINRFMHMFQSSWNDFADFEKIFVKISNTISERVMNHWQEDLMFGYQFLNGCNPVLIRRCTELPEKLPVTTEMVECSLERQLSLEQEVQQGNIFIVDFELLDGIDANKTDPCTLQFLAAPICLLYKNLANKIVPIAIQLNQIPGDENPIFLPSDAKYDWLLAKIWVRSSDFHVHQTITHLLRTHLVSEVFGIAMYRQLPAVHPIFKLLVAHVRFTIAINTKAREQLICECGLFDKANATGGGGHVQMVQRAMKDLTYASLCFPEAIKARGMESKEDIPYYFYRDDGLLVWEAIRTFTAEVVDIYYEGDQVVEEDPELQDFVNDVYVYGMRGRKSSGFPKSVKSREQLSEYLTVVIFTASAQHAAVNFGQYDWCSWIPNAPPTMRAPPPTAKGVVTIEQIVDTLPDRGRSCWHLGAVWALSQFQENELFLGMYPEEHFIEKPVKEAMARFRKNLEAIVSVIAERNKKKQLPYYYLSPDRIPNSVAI
Experiment: Inhibition of calcium ionophore A23187-induced LTB4 biosynthesis in human whole blood
Type: cell-based
Conditions: human heparinized whole blood, 15 min preincubation 37° C., A23187 8.3 μM, 30 min
Experimental: Inhibition of leukotriene biosynthesis was evaluated in an assay, involving calcium ionophore-induced LTB4 biosynthesis expressed human whole blood. Human heparinized whole blood was preincubated with test compounds or vehicle for 15 min 37° C. followed by calcium ionophore A23187 challenge (final concentration of 8.3 μM) and the reaction terminated after 30 min by adding two volumes of methanol containing prostaglandin B2 as an internal recovery standard. The methanol extract was analyzed for LTB4 using a commercially available radioimmunoassay.

In vitro inhibitory potency against 5-lipoxygenase from stimulated LTB4 formation in human whole blood (percent inhibition) (@ 1.56 μM): 100%
SMILES: CON=C(c1cc(F)cc(OCc2ccc(N(C)C(C)=O)cc2)c1)C1CCOCC1 [Example 1, E- and Z-O-Methyl-4-[(3-(4-(N-acetyl-N-methylamino)benzyloxy)-5-fluoro-phenyl)oximinomethyl]tetrahydropyran]

In vitro inhibitory potency against 5-lipoxygenase from stimulated LTB4 formation in human whole blood (percent inhibition) (@ 0.78 μM): 100%
SMILES: CON=C(c1cc(F)cc(OCc2ccc(N(C)C(=O)N(C)C)cc2)c1)C1CCOCC1 [Example 5, E- and Z-O-Methyl-4-[(3-(4-N',N'-dimethylaminocarbonyl-N-methylamino)benzyloxy)-5-fluoro-phenyl)oximinomethyl]tetrahydropyran]

In vitro inhibitory potency against 5-lipoxygenase from stimulated LTB4 formation in human whole blood (percent inhibition) (@ 3.13 μM): 12%
SMILES: CON=C(c1cc(F)cc(OCc2cccc(N(C)C(=O)N(C)C)c2)c1)C1CCOCC1 [Example 43, E- and Z-O-Methyl-4-[(3-(3-(N',N'-dimethylaminocarbonyl-N-methylamino)-benzyloxy)-5-fluoro-phenyl)oximinomethyl]tetrahydropyran]
